pIC50, pKi: −log10 of the molar value. Several values for one entry are separate records, joined by “and”; a condition that tells them apart may be missing. Equal entries are not always repeated. Where two headings read alike, the source gives them in different places.
Assays:
[1] = system: polyamine transport apparatus; experiment: Competition with radiolabeled spermidine for uptake into L1210 cells (Ki); format: cell-based, Murine
Method: The same cell line was utilized to evaluate the tetraamines's competition with radiolabeled spermidine for the polyamine uptake apparatus (Ki). The Ki values here are the concentrations of drugs required to inhibit the uptake of radioactive spermidine transport by 50% (Table 1).
Uptake Determinations. The polyamine derivatives were studied for their ability to compete with [^3 H]SPD or [^14 C]SPD for uptake into L1210 leukemia cells in vitro. Cell suspensions were incubated in 1 ml of RPMI-1640 containing 1, 2, 4, 6, 8 and 10 μm radiolabeled SPD alone or with the additional presence of 10, 25 and 50 μm polyamine analogue for 20 minutes at 37° C. At the end of the incubation period, tubes were centrifuged at 900 g for 5 minutes at 0-4° C. The pellet was washed twice with 5 ml of cold RPMI-1640 containing 1 mm SPD, dissolved in 200 μl of 1N NaOH at 60° C. for 1 hour, and neutralized with 1N HCl. The material was transferred to a vial for scintillation counting.

[2] = system: castor oil-induced diarrhea; experiment: Castor oil-induced diarrhea; format: in vivo, rat; conditions: rat; for stool output / diarrhea during 6 hour assay (FIG. 8): subcutaneous injection 30 minutes before castor oil 5 ml/kg
Description: Castor Oil-Induced Diarrhea. Male Sprague-Dawley rats (350-400 g) were fasted overnight in hanging wire cages and allowed free access to water.

L1210 cells [3] = experiment: L1210 growth inhibition, IC50 determinations; format: cell-based, Murine; conditions: L1210 cells
Method: IC50 Determinations. Cells were grown in 25 cm^2 tissue culture flasks in a total volume of 10 ml. Cultures were treated while in logarithmic growth (0.5-1.0×10^5 cells/ml) with the polyamine derivative diluted in sterile water and filtered through a 0.2 μm filter.
After the indicated time periods, cells were removed from the incubator for counting. Cell number was determined by electronic particle counting (Model ZF coulter counter, Coulter Electronics, Hialeah, Fla.) and confirmed periodically with hemocytometer measurements.
The percentage of control growth was determined as follows: [formula]

L1210 cells [4] = experiment: Polyamine pool analysis in analogue-treated L1210 cells (HPLC); format: cell-based, Murine
Method: Polyamine Pool Analysis. While in logarithmic growth, cells were treated with the polyamine derivatives. […] Each supernatant was frozen at -20° C. until analysis by HPLC.

NMDA receptor = experiment: NMDA assay: specific [3H]MK-801 binding to washed rat cerebral cortical membranes; conditions: 100 μm L-glutamate, 100 μm glycine, 2 nm [3H]MK-801
Description: FIG. 4 depicts the effects of (HO)2 DEHSPM and DEHSPM on the NMDA receptor (MK-801 binding). Each data point represents the mean ±s.d. of three experiments. Each experiment was, in turn, performed in triplicate. "100% activity" is defined as the amount of specific MK-801 binding to washed rat cerebral cortical membranes in the presence of saturating concentrations of coagonists (100 μm L-glutamate, 100 μm glycine) and 2 nm [^3 H]MK-801.
NMDA Assay. The procedure for measuring specific binding of [^3 H]MK-801 to the N-methyl-D-aspartate receptor complex was a modification of the method of Ransom and Stec [J. Neurochem., Vol. 51, pages 830-836 (1988)]. Cerebral cortices from young male Sprague-Dawley rats (200-300 g) were homogenized with 10 volumes ice-cold 0.32M sucrose using a motor-driven glass/Teflon homogenizer. The homogenate was centrifuged at 1,000 g for 10 minutes and the pellet was discarded. The supernatant was then centrifuged at 18,000 g for 20 minutes. The 18,000 g pellet was then resuspended in 10 volumes buffer A (5 mm Tris-HCl, pH 7.7) at 4° C., homogenized using high-intensity ultrasound and centrifuged at 8,000 for 20 minutes. The supernatant and upper buffy coat of the pellet were combined and centrifuged at 50,000 g for 20 minutes. The pellet was then resuspended in 10 volumes buffer A and homogenized using high-intensity ultrasound. These resuspended membranes were then centrifuged at 50,000 g, discarding the supernatant. The membranes were washed in this manner an additional three times and stored as a frozen suspension at -80° C. for at least 18 hours, but no longer than 2 weeks before use.
For binding experiments, frozen membranes were thawed, pelleted at 50,000 g for 20 minutes and washed as described above, except that 20 volumes of buffer A were used for resuspension, for a total of four times. The final pellet was resuspended in buffer B (5 mm Tris-HCl, pH 7.5) at 23° C. The binding assay mixture was 1.00 ml buffer B containing 200-300 μg membrane protein, 100 μm L-glutamate, 100 μm glycine, 2 nm [^3 H]MK-801 and tetraamine at the following concentrations: 0 ("100%+L-glu,+gly-Control") and 0.05, 0.1, 0.5, 1, 5, 10, 50, 100, 500 and 1,000 μm. Non-specific binding was determined using 100 μm MK-801.
Binding assays were performed in triplicate at 23° C. for one hour and were terminated by filtration through Whatman GF/B glass fiber filters followed by three 4.0 ml rinses of ice-cold buffer B using a Brandel M-48 Cell Harvester.

[5] = Metabolism of (HO)2 DEHSPM v. DEHSPM in mouse liver and kidney (HPLC); format: in vivo
Method: Metabolism of (HO)2 DEHSPM v. DEHSPM in Mouse Liver and Kidney. […] In ease case, animals were sacrificed for HPLC analysis one day after the final dose.
HPLC Analysis of Polyamines. Various tissues including the liver and kidney were prepared for HPLC analysis of polyamine content. In order to facilitate their handling, the organs were submerged in liquid nitrogen. Once frozen and weighed, the tissues were homogenized (Tissuemizer, Tekmar, Cincinnati, Ohio) in 1.2N perchloric acid (containing 1,7-diaminoheptane internal standard) in a 1:20 (w/v) ratio. The tissue homogenates were then freeze-thawed three times and stored in a -70° C. freezer until HPLC analysis was performed.
Each chromatographic assay included calibration standards which were treated in the same manner as the samples. […] The concentration of each polyamine was calculated from the peak area by calibration curves obtained by non-weighted least squares linear regression. Peak area and linear regression calculations were performed on a Macintosh Centris 650 with Rainin Dynamax HPLC Method Manager software (Rainin Instrument Co., Ridgefield, N.J.).

[6] = Chronic toxicity, one dose per day for five days; format: in vivo; conditions: mouse, in vivo
Method: In the chronic toxicity regimen, mice were administered the polyamine analogue as one dose per day for five days. Appetite, weight and overall physical appearance were recorded at the time of each injection. After the treatment regimen had been completed, the animals were observed an additional 10 days. The chronic toxicity dosing regimen was set up so that at least one test group was presented with a high fraction of lethalities.

[7] = mice, three weeks after a seven day schedule; cited from earlier work
[8] = Acute toxicity, single intraperitoneal injection; conditions: mouse, in vivo, ip
[9] = Protonation state at physiological pH assumed from measured pKa values; format: physicochemical; conditions: physiological pH of 7.2
Method: All of the non-aromatic, non-trifluoroethylated tetraamines are largely in the form of the tetracation at the physiological pH of 7.2. The spermine analogues (13-16 and 34) and the homospermine analogues and homologues (18-26, 29 and 31-33) should be 85 and 97%, respectively, in the form of the tetracations. The norspermine analogues (9-12) should be at least 74% in the form of the tetracations. […] Thus, the calculation of atomic charges and conformational search of these analogues were carried out based on the anticipated protonated structures.

[10] = tetraamine analogues, L1210 cells, radiolabeled spermidine uptake, read-out: Ki, actual (Table 1)
[11] = triamine analogues, bioassay results not in model data set, read-out: Ki, Actual (Table 2)
[12] = 24 h after regimen, normalized for 30 g mouse
[13] = liver and kidneys, 24 h after regimen, 30 g mouse
[14] = mouse, one day after subchronic equimolar i.p. regimen

CC(C)(C)NCCCCNCCCCNCCCCNC(C)(C)C [DTBHSPM]
pKi [1, 10]: 4.25

NCCCNCCCN [NSPD, norspermidine]
pKi [1, 11]: 5.08

CCCNCCCNCCCNCCCNCCC [DPNSPM]
anti-diarrheal activity ([2]; 15 mg/kg): far less active than the homospermine compounds | stool output / diarrhea during 6 hour assay (FIG. 8) [2]: became diarrheal during the 6 hour assay

C(CCNCC1CCNCC1)CNCC1CCNCC1 [PIP(4,4,4)]
pKi [1, 10]: 5.31

CCNCCCCNCCCN [N^8 -MESPD]
pKi [1, 11]: 5.15

CC(C)NCCCNCCCNCCCNC(C)C [DIPNSPM]
pKi [1, 10]: 4.40

CCNCCCCNCCCCNCCCCNCC [DEHSPM, Diethylhomospermine]
pKi ([1]; L1210 cells, estimated from Lineweaver-Burke plots, read-out: Ki, [3H]-spermidine transport): 5.85 | pKi [1, 10]: 5.85 | pIC50 (L1210 cells [3]; 96 h, read-out: IC50 96 h): 7.05 to 7.30 | pIC50 (L1210 cells [3]; Mus musculus, L1210, 48 h, 48 h, read-out: IC50 48 h): 6.70 | pIC50 (L1210 cells [3]; Mus musculus, L1210, 96 h, 96 h, read-out: IC50 96 h): 7.15 | SPM level relative to untreated controls (L1210 cells [4]; L1210 cells, 10 μm analogue, 48 hours, control = 100%): 60% and 61% | N-deethylation by L1210 cells (L1210 cells [4]; in vitro conditions): do not N-deethylate | concentration showing agonist activity on MK-801 binding (NMDA receptor): 0.5-1.0 μm | concentrations of maximal antagonism of MK-801 binding (NMDA receptor): ≥ 50 μm | concentrations showing marked antagonist activity on MK-801 binding (NMDA receptor): above 5 μm | % of total dose present as total drug + metabolite, Kidneys [5, 12]: 9.67% | % of total dose present as total drug + metabolite, Liver [5, 12]: 24.15% | % of total dose present as unmetabolized parent drug, Kidneys [5, 12]: 3.14 ± 1.37% | % of total dose present as unmetabolized parent drug, Liver [5, 12]: 1.84 ± 0.53% | Amount of total dose present as dideethylated metabolite HSPM/(HO)2 HSPM, Kidneys [5, 12]: 0.408 µmol | Amount of total dose present as dideethylated metabolite HSPM/(HO)2 HSPM, Liver [5, 12]: 1.394 µmol | Amount of total dose present as total drug + metabolite, Kidneys [5, 12]: 0.604 µmol | Amount of total dose present as total drug + metabolite, Liver [5, 12]: 1.509 µmol | Amount of total dose present as unmetabolized parent drug, Kidneys [5, 12]: 0.196 µmol | Amount of total dose present as unmetabolized parent drug, Liver [5, 12]: 0.115 µmol | % of total dose present as total drug + metabolite, Both Tissues [5, 13]: 33.8% and 33.82% | % of total dose present as unmetabolized parent drug, Both Tissues [5, 13]: 5.0% and 4.98% | Amount of total dose present as dideethylated metabolite HSPM/(HO)2 HSPM, Both Tissues [5, 13]: 1.80 µmol and 1.802 µmol | Amount of total dose present as total drug + metabolite, Both Tissues [5, 13]: 2.11 µmol and 2.113 µmol | Amount of total dose present as unmetabolized parent drug, Both Tissues [5, 13]: 0.313 µmol and 0.311 µmol | level of unchanged drug in kidney [5, 14]: 409±178 nmol/g wet weight | level of unchanged drug in liver [5, 14]: 43.9±12.6 nmol/g wet weight | greater chronic toxicity of DEHSPM v. DENSPM [6]: 4-5 fold | LD50 ([6]; read-out: chronic LD50): 38 mg/kg | prevention of castor oil-induced diarrhea ([2]; 5 mg/kg subcutaneous, six hour assay): effectively prevented the onset of diarrheal stooling | stool output / diarrhea during 6 hour assay (FIG. 8) [2]: virtually no stool output | drug administered remaining in liver and kidney as drug or metabolites [7]: 35% | share of drug remaining in the animal that is in the form of HSPM [7]: 90% | LD50 [8]: 325 mg/kg

CCNCCCNCCCNCCCN [MENSPM, N^1 -ethylnorspermine]
pKi [1, 10]: 5.11

CCNCCCCNCCCCNCCCCNC(C)(C)C [ETBHSPM]
pKi [1, 10]: 5.52

C(CCNC1CCNCC1)CNC1CCNCC1 [PIP(3,4,3)]
pKi [1, 10]: 4.22

CCNCCCCNCCCCCNCCCCNCC [DE(4,5,4)]
pKi [1, 10]: 5.22

NCCCCNCCCCNCCCCN [HSPM, homospermine]
stool output / diarrhea during 6 hour assay (FIG. 8) [2]: became diarrheal during the 6 hour assay

CNCCCNCCCCNCCCNC [DMSPM]
pKi [1, 10]: 5.96

C(CCNCCCCNC12CC3CC(CC(C3)C1)C2)CNCCCCNC12CC3CC(CC(C3)C1)C2 [BAHSPM]
pKi [1, 10]: 5.70

CCCNCCCNCCCCNCCCNCCC [DPSPM]
pKi [1, 10]: 5.64

FC(F)(F)CNCCCNCCCCNCCCNCC(F)(F)F [FDESPM, N^1,N^12-bis(2,2,2-trifluoroethyl)spermine]
pKi [1, 10]: 3.55 | protonation state [9]: almost exclusively in the form of the internal dication

— patent publication US5962533A, “Hydroxy polyamines” (priority 1996, dated 1999)
